Consider 1 compound from patent US9951039B2, “Pyrimidines for treatment of bacterial infections” (The Hong Kong Polytechnic University, priority 2016, dated 2018).

Values after ≈ are worked out from the molar mass of the structure shown. Some results are limits rather than exact numbers.

Assay [1] deals with S. aureus ATCC BAA-1720 (methicillin resistant). Put plainly: MIC against clinically isolated strain 3. The format is cell-based. As to conditions: Staphylococcus aureus, ATCCBAA1720. On the procedure:
(§1) Procedure of Antimicrobial susceptibility test: The MIC value of compounds was measured in the antimicrobial susceptibility test using the broth microdilution procedure in accordance with the CLSI guidelines.^21 Cation-adjusted Mueller Hinton broth (CA-MHB) was used for all the S. aureus strains in the assay. Cells in exponential phase of growth were diluted to approximately 5×10^5 cfu/mL. Stock solutions of each compound were freshly dissolved in dimethyl sulfoxide (DMSO). Then, serial dilutions of each compound in CA-MHB medium were added into 96-well microplate. The final percentage of DMSO in the assay was 1%. Control experiments were performed with 1% DMSO instead of the compound solution. After being incubated at 37° C. for 18 h, OD600 value of cells was measured on a microplate reader and the percentage of bacterial cell inhibition with respect to controls was calculated. The MIC value was defined as the lowest compound concentration at which the growth of bacteria was inhibited by ≥90%. Three independent assays were performed for each compound.
(§2) Results: Three compounds, namely 14av_amine16, 14dv_amine16 and 14dv_amine06, were selected to be tested against nine in-house clinically isolated bacterial strains including S. aureus ATCC29247, which is an ampicillin resistant strain, S. aureus ATCC BAA-41, ATCC BAA-1717, ATCC BAA-1720, ATCC 43300 which are methicillin resistant strains and four USA300 strains, (#417, #757, #1799 and #2690), which are the predominant strain type of community-associated MRSA strains in the United States.

Assay [2] concerns USA300 #417 (community-associated MRSA). Nature of the assay: MIC against clinically isolated strain 6. The format is cell-based, S. aureus. As to conditions: Staphylococcus aureus. On the procedure:
as §1, §2

The test system of the next assay is MRSA ATCC 43300. Put plainly: Antimicrobial efficacy in G. mellonella model of infection. The format is in vivo, Galleria mellonella. Here is the method: Procedure: Compound 14av_amine16 was tested in a Galleria mellonella model, which are an easy and inexpensive in vivo model with no ethical constraints for investigating antibacterial activity of a compound.^22 The G. mellonella model of S. aureus infection was used as previously described.^24 Briefly, 1 mL aliquots of overnight cultures of S. aureus 43300 were pelleted by centrifugation and washed with sterile PBS before being resuspended in 100 μL of PBS. G. mellonella larvae (N=10) that weighed 200-300 mg were then inoculated with 10 μL of S. aureus (2.5×10^6 CFU) into the last left proleg. Larvae were then treated with compounds at 1 h before bacterial inoculation. Treatments were performed in the same manner as infection, except that compounds were injected into the next left proleg moving toward the head of the larvae. […] Data was analyzed for statistical significance using a log rank and χ square test with 1 degree of freedom. Various concentrations of compound 14av_amine16 dissolved in 50% PEG in saline (0 mg/Kg, 50 mg/Kg and 100 mg/Kg) were injected into the hemocoel of last-instar G. mellonella larvae and survival was scored over time.
The efficacy of compound 14av_amine16 against G. mellonella larvae infected with MRSA ATCC 43300 was investigated. Inoculation of lethal dose of 2.5×10^6 CFU/larva of MRSA ATCC 43300 led to a significant death rate. […]

The next assay deals with B. subtilis 168. Nature of the assay: Bacterial morphology of B. subtilis 168 (phase-contrast microscopy). The format is cell-based. As to conditions: sub-lethal concentration, 4 h. On the procedure:
Procedure: The B. subtilis 168 cells were grown in LB medium. The cultures at an A600 of 0.01 from an overnight culture were inoculated in the same medium containing different concentrations of the test compounds and grown at 37° C. for 4 h. The cells for morphology studies were harvested and resuspended in 100 μL of PBS buffer containing 0.25% agarose. 10 μL of the suspension mixture were then placed on a microscopic slide pretreated with 0.1% (w/v) poly-L-lysine and the morphology of the bacterial cells was observed under a phase-contrast optical microscope at 40× magnification. The images were captured using an Olympus Bio Imaging Navigator FSX 100 microscope.

Assay [3] relates to FtsZ GFP fusion stain of B. subtilis 168. Put plainly: Z-ring visualization, GFP tagged FtsZ in B. subtilis 168. The format is cell-based. As to conditions: 6 μM test compound, 4 hours. Here is the method: Procedure: A single colony of FtsZ GFP fusion stain of B. subtilis 168 was grown in 5 ml 2×TY medium with 35 mg/L chloramphenicol for 14 hours at 30° C. An overnight culture was then diluted to an OD600 of 0.01 by 2×TY medium containing the absence (DMSO) and presence of 6 μM test compounds and 40 μM of IPTG, it grew at 30° C. after 4 hours of incubation; the cells were pelleted and re-suspended in 300 μL PBS buffer containing 1% agarose. 10 μL suspensions were then placed on the microscopic slide. The morphology of bacterial cell was observed under a fluorescent and phase-contrast microscope at 40× magnification, using the software of Olympus FSX100® Bio Imaging Navigator to capture images.

For `CCC(CC)c1cc(CCN2CCCN(Cc3ccc(C(F)(F)F)cc3)CC2)nc(-c2ccncc2)n1` [Compound 14av_amine16, 1-(2-(6-(pentan-3-yl)-2-(pyridin-4-yl)pyrimidin-4-yl)ethyl)-4-(4-(trifluoromethyl)benzyl)-1,4-diazepane], the MIC in assay [1] and in assay [2] was 12 µM (≈ 6.14 µg/mL) in each case. Besides, the “survival time of infected larvae” value with MRSA ATCC 43300 (50 mg/Kg, lethal dose 2.5×10^6 CFU/larva MRSA ATCC 43300) came to 36 h. In addition, the “survival rate of infected larvae over the infection period” value with MRSA ATCC 43300 (100 mg/Kg, lethal dose MRSA ATCC 43300, 48 h) is 20%. Besides, in the assay with B. subtilis 168, the average cell length is over 20 μm. Moreover, the Z-ring localization result in assay [3] is “obvious mislocalization of the Z-ring”.

In general, MIC refers to the least concentration at which growth counts as inhibited. A higher MIC goes with a less susceptible organism.
